In patent publication US8512752B2, “Hyaluronic acid derivatives obtained via “click chemistry” crosslinking” (Fidia Farmaceutici S.p.A., priority 2006, dated 2013):
Where a name gives a salt, the structure may show the parent alone.

Experiments:
Type in all cases: physicochemical
[1] = release of benzydamine hydrochloride from hydrogel of hyaluronic acid with 1,6-Heptadiyne; conditions: hydrogel of HA (product 1) with 1,6-heptadiyne, catalytic CuSO4.5H2O and ascorbic acid, Example 13; release in 100 ml distilled water
Protocol: (§1) 100 mg of product 1 are dissolved in 1.1 ml of distilled water; a solution of 140 μl of 1,6-Heptadiyne in 9.86 ml of DMSO are prepared separately, whereas 13.8 mg of benzydamine hydrochloride are dissolved in 0.5 ml of distilled water. The solution of hyaluronic acid is mixed with that of benzydamine and with 0.2 ml of that of 1,6-Heptadiyne; 0.1 ml of an aqueous solution obtained with 50 mg of CuSO4.5H2O in 1 ml of H2O and 0.1 mL of an aqueous solution of 20 mg of ascorbic acid are then added. The mixture is stirred vortically for a few minutes. The rapidly formed gel incorporates the benzydamine hydrochloride inside.
(§2) The quantity of benzydamine hydrochloride released from the hydrogel, in 100 ml of distilled water, is determined by means of U.V. spectrophotometric measurements at λ=308 nm by interpolation of the absorbance values on a calibration line constructed using solutions of the drug at known concentration.

[2] = release of benzydamine hydrochloride from hydrogel of crosslinked hyaluronic acid obtained with catalytic CuCl; conditions: hydrogel of HA (product 1 + product 2) crosslinked with catalytic CuCl, Example 11; release in 100 ml phosphate buffer solution pH=7.4
Protocol: 69 mg of benzydamine hydrochloride are dissolved in 2 ml of water and 50 mg of product 1 and 50 mg of product 2 synthesized as described above, are then added.
830 μL of a 1% w/V solution of CuCl are subsequently added to the solution and the gel is formed after a few minutes directly incorporating the drug.
as §2, with “ml of a phosphate buffer solution pH=7.4, is determined” for “ml of distilled water, is determined”, “drug at a known concentration.” for “drug at known concentration.”
(§3) The release measurements of the drug are performed on the hydrogel described above.

[3] = release of benzydamine hydrochloride from hydrogel of crosslinked hyaluronic acid obtained with catalytic CuSO4.5H2O; conditions: hydrogel of HA (product 1 + product 2) crosslinked with catalytic CuSO4.5H2O and ascorbic acid, Example 11; release in 100 ml distilled water
Protocol: 50 mg of product 1 and 50 mg of product 2 are dissolved in 1.3 ml of distilled water and separately 13.8 mg of benzydamine hydrochloride are dissolved in 0.5 ml of distilled water. The solution of hyaluronic acid is mixed with that of benzydamine hydrochloride; 0.1 ml of an aqueous solution obtained with 50 mg of CuSO4.5H2O in 1 ml of H2O and 0.1 ml of an aqueous solution of 20 mg of ascorbic acid are then added.
The mixture is stirred vortically for a few minutes. The rapidly formed gel incorporates the benzydamine hydrochloride inside.
as §2, §3

[4] = release of doxorubicin hydrochloride from hydrogel of crosslinked hyaluronic acid obtained with catalytic CuCl; conditions: hydrogel of HA (product 1 + product 2) crosslinked with catalytic CuCl, Example 11; release in 100 ml distilled water
Protocol: 29 mg of doxorubicin hydrochloride are dissolved in 2 ml of water and 50 mg of product 1 and 50 mg of product 2 synthesized as described above, are then added. 830 μL of a 1% w/V solution of CuCl are subsequently added to the solution and the gel is formed after a few minutes directly incorporating the drug present in solution.
(§4) The quantity of doxorubicin hydrochloride released from the hydrogel in 100 ml of distilled water, is determined by U.V. spectrophotometric measurements at λ=486 nm by interpolation of the absorbance values on a calibration line constructed using solutions of the drug at known concentration.
as §3

[5] = release of doxorubicin hydrochloride from hydrogel of hyaluronic acid with 1,6-heptadiyne; conditions: hydrogel of HA (product 1) with 1,6-heptadiyne, catalytic CuSO4.5H2O and ascorbic acid, Example 13; release in 100 ml distilled water
Protocol: as §1, with “23.2” for “13.8”, “doxorubicin” for “benzydamine”, “ml” for “mL”, “gel (see FIG. 28)” for “gel”
as §4, with “from the hydrogel, in 100” for “from the hydrogel in 100”, “determined by means of U.V. spectrophotometric” for “determined by U.V. spectrophotometric”

[6] = release of doxorubicin hydrochloride from hydrogel of hyaluronic acid with 1,4-diethynylbenzene; conditions: hydrogel of HA (product 1) with 1,4-diethynylbenzene, catalytic CuSO4.5H2O and ascorbic acid, Example 13; release in 100 ml distilled water
Protocol: 100 mg of product 1 are dissolved in 1.1 ml of distilled water and 3 mg of 1,4-Diethynylbenzene are dissolved separately in 0.2 ml of DMSO, whereas 23.2 mg of doxorubicin hydrochloride are dissolved in 0.5 ml of distilled water. The three solutions are mixed, 0.1 ml of an aqueous solution obtained with 50 mg of CuSO4.5H2O in 1 ml of H2O and 0.1 ml of an aqueous solution of 20 mg of ascorbic acid are then added. The mixture is stirred vortically for a few minutes. The rapidly formed gel (see FIG. 26) incorporates the doxorubicin hydrochloride inside.
as §4, with “from the hydrogel, in 100” for “from the hydrogel in 100”, “determined by means of U.V. spectrophotometric” for “determined by U.V. spectrophotometric”
The release measurements of the drug are effected on the hydrogel described above.

[7] = release of doxorubicin hydrochloride from hydrogel of hyaluronic acid with 1,8-Nonadiyne; conditions: hydrogel of HA (product 1) with 1,8-Nonadiyne, catalytic CuSO4.5H2O and ascorbic acid, Example 13; release in 100 ml distilled water
Protocol: 100 mg of product 1 are dissolved in 1.1 ml of distilled water; a solution of 200 μl of 1,8-Nonadiyne in 11.23 ml of DMSO are prepared separately, whereas 23.2 mg of doxorubicin hydrochloride are dissolved in 0.5 ml of distilled water. The solution of hyaluronic acid is mixed with that of doxorubicin and with 0.2 ml of that of 1,8-Nonadiyne; 0.1 ml of an aqueous solution obtained with 50 mg of CuSO4.5H2O in 1 ml of H2O and 0.1 ml of an aqueous solution of 20 mg of ascorbic acid are then added. The mixture is stirred vortically for a few minutes. The rapidly formed gel (see FIG. 31) incorporates the doxorubicin hydrochloride inside.
as §4, with “from the hydrogel, in 100” for “from the hydrogel in 100”, “determined by means of U.V. spectrophotometric” for “determined by U.V. spectrophotometric”
as §3

Structure (SMILES) | maximum quantity released, of the quantity of drug initially incorporated in the gel [1] [%] | period over which the maximum quantity of drug is released [1] | maximum quantity released, of the quantity of drug initially incorporated in the gel [2] [%] | period over which the maximum quantity of drug is released [2] | maximum quantity released, of the quantity of drug initially incorporated in the gel [3] [%] | period over which the maximum quantity of drug is released [3] | maximum quantity released, of the quantity of drug initially incorporated in the gel [4] [%] | period over which the maximum quantity of drug is released [4] | maximum quantity released, of the quantity of drug initially incorporated in the gel [5] [%] | period over which the maximum quantity of drug is released [5] | maximum quantity released, of the quantity of drug initially incorporated in the gel [6] [%] | period over which the maximum quantity of drug is released [6] | maximum quantity released, of the quantity of drug initially incorporated in the gel [7] [%] | period over which the maximum quantity of drug is released [7]
CN(C)CCCOc1nn(Cc2ccccc2)c2ccccc12 [benzydamine hydrochloride] | 80 | about 6 h | 88 | about 3.5 h | 70 | about 5 h |  |  |  |  |  |  |  | 
COc1cccc2c1C(=O)c1c(O)c3c(c(O)c1C2=O)C[C@@](O)(C(=O)CO)C[C@@H]3O[C@H]1C[C@H](N)[C@H](O)[C@H](C)O1 [doxorubicin hydrochloride] |  |  |  |  |  |  | 25 | about 160 h | 23 | about 250 h | 50 | about 50 h | 14 | about 100 h
